Measured values taken from patent US8287923B2, “Compositions and methods for treating immune disorders” (priority 2005, dated 2012).

Test system: normal human epidermal keratinocytes (NHEK)
Experiment: Affymetrix gene array analysis, autoantigen gene expression
Assay type: cell-based
Experimental: The gene array experiment was performed at the Core Facility of Genomics of the Medical College of Georgia, according to the instructions of the manufacturer (Affymetrix, Santa Clara, Calif.). Briefly, NHEK and OSC2 cells treated with 100 μM EGCG for different time period were extracted for total RNA, the RNA was processed for probes and hybridized with a cDNA microarray (HuG133A, Affymetrix) which represents 22,283 human series. DNA chips were read with a Hewlett-Packard GeneArray Scanner at a resolution of […] and were analyzed with the GeneSpring software (Silicon Genetics, Redwood City, Calif.). Details of this analysis will be published elsewhere (Hsu et al., manuscript in preparation).
Gene assays provide a valuable tool for studying the broad response of cells to agents, and we have used this approach to compare the differential effects of GTPP on gene expression in NHEK and human oral squamous carcinoma cells (Hsu, et al, manuscript in preparation). […] See also Hsu, S. et al. (2005) JPET 315:805-811, which is incorporated by reference in its entirety.

O=C(O[C@@H]1Cc2c(O)cc(O)cc2O[C@@H]1c1cc(O)c(O)c(O)c1)c1cc(O)c(O)c(O)c1 [EGCG, (−)-epigallocatechin-3-gallate]
Ku autoantigen, 80 kDa (208642_s_at) expression, normalized (24 h, 100 μM): 0.73 | Ku autoantigen, 80 kDa (208643_s_at) expression, normalized (24 h, 100 μM): 0.77 | Nuclear antigen SP100 (202863_at) expression, normalized (24 h, 100 μM): 0.36 | Nuclear antigen SP100 (202864_s_at) expression, normalized (24 h, 100 μM): 0.08 | Nuclear antigen SP10075 kDa (213226_at) expression, normalized (24 h, 100 μM): 0.50 | RNA polymerase 1 (202692_s-at) expression, normalized (24 h, 100 μM): 0.55 | SS-B/La (201138_s_at) expression, normalized (24 h, 100 μM): 0.27 | SS-B/La (201139_s_at) expression, normalized (24 h, 100 μM): 0.26 | centromere protein C1 (20473_at) expression, normalized (24 h, 100 μM): 0.94 | coilin (203653_s_at) expression, normalized (24 h, 100 μM): 0.79 | coilin (203654_s_at) expression, normalized (24 h, 100 μM): 0.79 | fodrin-α (208611_s_at) expression, normalized (24 h, 100 μM): 0.42 | fodrin-α (215235_s_at) expression, normalized (24 h, 100 μM): 0.71 | golgin-67 (208797_s_at) expression, normalized (24 h, 100 μM): 0.29 | golgin-67 (208798_x_at) expression, normalized (24 h, 100 μM): 0.31 | golgin-67 (210425_x_at) expression, normalized (24 h, 100 μM): 0.31 | golgin-67 (213650_at) expression, normalized (24 h, 100 μM): 0.72 | scleroderma autoantigen 1, 75 kDa (213226_at) expression, normalized (24 h, 100 μM): 0.50 | spectrin-β non-erythrocyctic 1 (212071_s_at) expression, normalized (24 h, 100 μM): 0.72 | thyroid autoantigen 70 kDa (Ku antigen) (200792_at) expression, normalized (24 h, 100 μM): 0.79 | ADPRT [poly(ADP)-ribose polymerase] expression (24 h, 100 μM, vs time zero): 0.85 fold | ANAP12 expression (24 h, 100 μM, vs time zero): 0.198 fold | ANXA11 expression (24 h, 100 μM, vs time zero): 1.946 fold | CALR expression (24 h, 100 μM, vs time zero): 1.528 fold | CBARA1 expression (24 h, 100 μM, vs time zero): 0.721 fold | CENPA expression (24 h, 100 μM, vs time zero): 0.673 fold | CENPB expression (24 h, 100 μM, vs time zero): 0.721 fold | CENPC1 expression (24 h, 100 μM, vs time zero): 0.936 fold | CHD4 expression (24 h, 100 μM, vs time zero): 0.84 fold | COL17A1 expression (24 h, 100 μM, vs time zero): 0.684 fold | CTDSP1 expression (24 h, 100 μM, vs time zero): 1.39 fold | CTDSP2 expression (24 h, 100 μM, vs time zero): 1.71 fold | CTDSPL expression (24 h, 100 μM, vs time zero): 2.10 fold | DLAT expression (24 h, 100 μM, vs time zero): 0.751 fold | EPPK1 expression (24 h, 100 μM, vs time zero): 0.889 fold | FBL expression (24 h, 100 μM, vs time zero): 0.69 fold | FLJ31657 expression (24 h, 100 μM, vs time zero): 0.959 fold | FLNB (Filamin B, β) expression (24 h, 100 μM, vs time zero): 0.249 fold | FLNB (Filamin B, γ) expression (24 h, 100 μM, vs time zero): 0.243 fold | G22P1 (Thyroid autoantigen, 70 kDa, Ku antigen) expression (24 h, 100 μM, vs time zero): 0.792 fold | GMEB2 expression (24 h, 100 μM, vs time zero): 0.745 fold | GOLGA1 expression (24 h, 100 μM, vs time zero): 0.9 fold | GOLGA2 expression (24 h, 100 μM, vs time zero): 0.949 fold | GOLGA3 expression (24 h, 100 μM, vs time zero): 0.419 fold | GOLGA4 expression (24 h, 100 μM, vs time zero): 0.664 fold | GOLGA5 expression (24 h, 100 μM, vs time zero): 1.494 fold | GOLGB1 expression (24 h, 100 μM, vs time zero): 0.688 fold | HARS expression (24 h, 100 μM, vs time zero): 0.72 fold | HARSL expression (24 h, 100 μM, vs time zero): 1.00 fold | HSA6591 expression (24 h, 100 μM, vs time zero): 0.562 fold | HUMAUANTIG expression (24 h, 100 μM, vs time zero): 0.517 fold | IMP-2 expression (24 h, 100 μM, vs time zero): 0.665 fold | LAD1 expression (24 h, 100 μM, vs time zero): 0.553 fold | LMO4 expression (repeat 1) (24 h, 100 μM, vs time zero): 1.011 fold | LMO4 expression (repeat 2) (24 h, 100 μM, vs time zero): 0.659 fold | MGC5560 expression (repeat 1) (24 h, 100 μM, vs time zero): 0.81 fold | MGC5560 expression (repeat 2) (24 h, 100 μM, vs time zero): 0.552 fold | NS (Nucleostemin) expression (24 h, 100 μM, vs time zero): 0.814 fold | PDHB expression (24 h, 100 μM, vs time zero): 0.818 fold | PDX1 expression (24 h, 100 μM, vs time zero): 0.903 fold | PMSCL1, 75 kDa expression (24 h, 100 μM, vs time zero): 0.496 fold | PMSCL2 expression (24 h, 100 μM, vs time zero): 0.717 fold | POLR1B expression (24 h, 100 μM, vs time zero): 1.04 fold | POLR1D expression (24 h, 100 μM, vs time zero): 1.31 fold | POLR2A expression (repeat 1) (24 h, 100 μM, vs time zero): 1.02 fold | POLR2A expression (repeat 2) (24 h, 100 μM, vs time zero): 1.17 fold | POLR2B expression (24 h, 100 μM, vs time zero): 0.74 fold | POLR2C expression (24 h, 100 μM, vs time zero): 1.66 fold | POLR2D expression (24 h, 100 μM, vs time zero): 0.29 fold | POLR2E expression (24 h, 100 μM, vs time zero): 0.39 fold | POLR2F expression (24 h, 100 μM, vs time zero): 0.80 fold | POLR2G expression (24 h, 100 μM, vs time zero): 0.89 fold | POLR2H expression (24 h, 100 μM, vs time zero): 1.15 fold | POLR3C expression (24 h, 100 μM, vs time zero): 0.49 fold | POLR3G expression (24 h, 100 μM, vs time zero): 0.47 fold | PSME3 expression (24 h, 100 μM, vs time zero): 0.421 fold | RALY expression (24 h, 100 μM, vs time zero): 0.612 fold | SART1 expression (24 h, 100 μM, vs time zero): 0.98 fold | SLC25A16 expression (24 h, 100 μM, vs time zero): 1.144 fold | SNRP70 expression (24 h, 100 μM, vs time zero): 0.51 fold | SNRPA expression (24 h, 100 μM, vs time zero): 0.32 fold | SNRPB2 expression (24 h, 100 μM, vs time zero): 0.82 fold | SNRPB expression (repeat 1) (24 h, 100 μM, vs time zero): 0.52 fold | SNRPB expression (repeat 2) (24 h, 100 μM, vs time zero): 0.42 fold | SNRPC expression (24 h, 100 μM, vs time zero): 1.12 fold | SNRPD1 expression (repeat 1) (24 h, 100 μM, vs time zero): 0.425 fold | SNRPD1 expression (repeat 2) (24 h, 100 μM, vs time zero): 0.517 fold | SOX13 expression (24 h, 100 μM, vs time zero): 1.582 fold | SP100 expression (repeat 1) (24 h, 100 μM, vs time zero): 0.356 fold | SP100 expression (repeat 2) (24 h, 100 μM, vs time zero): 0.079 fold | SP110 expression (repeat 1) (24 h, 100 μM, vs time zero): 0.978 fold | SP110 expression (repeat 2) (24 h, 100 μM, vs time zero): 0.654 fold | SP110 expression (repeat 3) (24 h, 100 μM, vs time zero): 0.621 fold | SPTAN1 (α-fodrin) expression (repeat 1) (24 h, 100 μM, vs time zero): 0.42 fold | SPTAN1 (α-fodrin) expression (repeat 2) (24 h, 100 μM, vs time zero): 0.71 fold | SPTBN expression (24 h, 100 μM, vs time zero): 0.72 fold | SSA2 (autoantigen SS-A/Ro) expression (repeat 2) (24 h, 100 μM, vs time zero): 0.88 fold | SSA2 expression (repeat 1) (24 h, 100 μM, vs time zero): 1.17 fold | SSA2 expression (repeat 3) (24 h, 100 μM, vs time zero): 1.556 fold | SSA2 expression (repeat 4) (24 h, 100 μM, vs time zero): 0.94 fold | SSB (autoantigen La) expression (repeat 1) (24 h, 100 μM, vs time zero): 0.273 fold | SSB (autoantigen La) expression (repeat 2) (24 h, 100 μM, vs time zero): 0.257 fold | SSNA1 expression (24 h, 100 μM, vs time zero): 0.943 fold | SSSCA1 expression (24 h, 100 μM, vs time zero): 1.228 fold | STRN3 expression (24 h, 100 μM, vs time zero): 0.759 fold | TOP1 expression (repeat 1) (24 h, 100 μM, vs time zero): 0.12 fold | TOP1 expression (repeat 2) (24 h, 100 μM, vs time zero): 0.43 fold | UBTF expression (24 h, 100 μM, vs time zero): 0.546 fold | XRCC5 (Ku autoantigen, 80 kDa) expression (repeat 1) (24 h, 100 μM, vs time zero): 0.771 fold | XRCC5 (Ku autoantigen, 80 kDa) expression (repeat 2) (24 h, 100 μM, vs time zero): 0.725 fold | dJ963E22.1 expression (24 h, 100 μM, vs time zero): 0.88 fold | α-NAC expression (24 h, 100 μM, vs time zero): 0.469 fold | rapid initial increase of nuclear antigen SP100 and scleroderma autoantigen 1 mRNA (followed by a 2-fold or greater decrease): 2-4 fold | decrease in mRNA levels of RNA polymerase I, SS-B/La, alpha-fodrin and golgin-67 (rapid (0.5-2 hr initiation) and persistent during the 24 hr period): ≥ 2 fold | 60 kDa SS-A/Ro mRNA level (time course up to 24 hr): did not decline significantly
